# From ChEMBL document CHEMBL3507680, “University of Dundee, Gates Library screen for HepG2 cell viability”
# Test: Human HepG2 cell viability assay in 384 well format
# Type: toxicity, cell-based
# Set-up: dose 125 nL, time 70.5 hour; concentration not given beside the values
# Conditions: HepG2 cells, read-out: Inhibition
row,Structure (SMILES),cytotoxicity at 70.5 h
1,Fc1ccc(CN2CCC(c3nccnc3-n3ccnc3)CC2)cc1,2.75%
2,CCc1ncc(C(=O)NCCNc2ncnc3sccc23)s1,18.2%
3,Cn1cnc(-c2nc(C(=O)NCCN3CCCC3)c3ccccn23)c1,-5.67%
4,CSCCC(=O)N(C/C=C/c1ccccc1)CCO,-5.02%
5,COC[C@@]12CCC[C@@H]1CN(C(=O)COC1CCCC1)C2,-6.5%
6,CCc1nc(CN2CCCN(C(=O)Cc3cccs3)CC2)cs1,-6.45%
7,Cc1ccc(C(N)c2cccc(S(C)(=O)=O)c2)cc1 (configuration not stated),4.98%
8,Cc1cnn(CC2CN(CC(=O)N(C)Cc3cnn(C)c3)CCO2)c1 (configuration not stated),-7.34%
9,CC(NC(=O)c1cccs1)C(=O)NCc1ccccn1 (configuration not stated),-2.68%
10,COCc1nc(C2CCN(Cc3nccn3C)CC2)no1,-4.44%
11,Cc1nn(C)c(C)c1C1CCCN1CC(=O)Nc1ccncc1 (configuration not stated),-7.94%
12,Cc1cnccc1NCCn1ccnc1C1CCOC1 (configuration not stated),-3.31%
13,CN(Cc1ccco1)C(=O)Nc1ccc(=O)n(C)c1,0.639%
14,CC(NCCCC#N)c1ccc(-c2cccnc2)cc1 (configuration not stated),-2.12%
15,COc1ccc(CNC2CCc3ncnn3C2)cc1OCC1CC1 (configuration not stated),-14.4%
16,O=C(CN1CCC[C@@H]1C(=O)O)NCCOc1cccc(C(F)(F)F)c1,-6.55%
17,O=C(c1cccnc1)N1CCO[C@@H]2CNC[C@@H]21,-4.67%
18,NC(=O)COc1ccc(C2NC(=O)CN2Cc2ccc(Br)cc2)cc1 (configuration not stated),-14.8%
19,Cc1ccc(OCc2occc2C(=O)N2CCCCC(N)C2)cc1 (configuration not stated),-2.2%

row,Structure (SMILES),cytotoxicity at 70.5 h
1,CCCOc1ccc(C(=O)N2C[C@@H](CN3CCCC3)[C@@H](CO)C2)cc1Cl,1.78%
2,CN(CCn1ccnc1-c1ccccn1)S(C)(=O)=O,11.9%
3,Cc1ccnc(CC(C)N(C)c2cc(CCN)nc(C)n2)c1 (configuration not stated),-6.01%
4,CC(C)c1noc(CCCC(=O)N2CCN(Cc3cccnc3)CC2)n1,-13%
5,COCCCN1CCc2cncnc2C1,-18.2%
6,Cc1occc1CN(C)Cc1nc2c(cnn2C)c(=O)[nH]1,-3.6%
7,CN(C)c1nccc(-c2cnc(N(C)C)[nH]c2=O)n1,-5.37%
8,COc1ccc(CNCc2cc(Br)c3c(c2)OCO3)cc1,-3.3%
9,CC(Cn1cc(Cl)cn1)C(=O)Nc1ccc(CN2CCCCCC2)cc1 (configuration not stated),18.9%
10,CCn1cncc1CNc1ccc(-c2nc(CC(C)C)no2)cn1,2.85%
11,O=C(O)c1csc(S(=O)(=O)N2CCCc3ccc(F)cc32)c1,-0.904%
12,O=C(NC1CC1)c1cc(C(F)(F)F)cc(C(F)(F)F)n1,-9.57%
13,Cc1oc(C(=O)O)cc1S(=O)(=O)Nc1cc(F)ccc1F,5.73%
14,CCn1nc(C)c(NC(=O)c2cc(NC(=O)C3CC3)n(C)n2)c1C,-5.29%
15,O=C(c1sccc1C1CC1)N1CCN(Cc2cscn2)CC1,5.77%
16,Cc1ncc(Cl)c(C(=O)N2CCCC(n3nc(C)nc3C)C2)n1 (configuration not stated),-6.14%
17,Cc1nn(C)c(Cl)c1C1CCCN1C(=O)c1ccnc(N(C)C)c1 (configuration not stated),-2.23%
18,O=C1CN(C(=O)c2nnn(-c3ccc(C(F)(F)F)cc3)n2)CCN1,-14.4%
19,CCc1nc(C2CCCN(C(=O)C3=NN(CC)C(=O)CC3)C2)no1 (configuration not stated),-13.2%

row,Structure (SMILES),cytotoxicity at 70.5 h
1,CCNC(=O)[C@@H]1C[C@H](N)CN1Cc1ccc2cccc(Cl)c2n1,-7.99%
2,CCN(CC)CC1CCN(Cc2ncc(C(C)(C)C)o2)CC1,1.11%
3,Cc1cccc(C)c1C(=O)N1C[C@@H](CN2CCOCC2)[C@@H](CO)C1,-7.08%
4,CC(C)N(CCO)C(=O)c1cc(COc2ccc3c(c2)CCCC3)on1,-10.1%
5,COCC(=O)NCc1cc(=O)n2c(n1)CN(Cc1ccccc1)CCC2,2.31%
6,Nc1cc2c(nn1)CCN(C(=O)c1ccc(-c3ccco3)[nH]c1=O)C2,-1.23%
7,NCCn1nc(C2CCN(Cc3ccccc3Cl)C2)c2nccnc21 (configuration not stated),-4.18%
8,COCCNC(=O)c1nc2c(s1)CCCN2c1ccc(C)nn1,0.81%
9,CN(Cc1cc2cc(F)ccc2[nH]1)C(=O)C1CC(=O)N(C2CC2)C1 (configuration not stated),-2.65%
10,COCc1cnc2n1CCN(C(=O)c1cnc3ccccc3c1)C2C (configuration not stated),-9.53%
11,Cn1ccnc1CN1CCc2ncnc(N3CCCC(C#N)C3)c2CC1 (configuration not stated),26.4%
12,CCn1nc(C)c(CNC(=O)c2nnc3ccc(OC)cc3n2)c1C,-3.67%
13,COc1ccc2cccc(CC(=O)NCc3n[nH]c(=O)[nH]3)c2c1,-1.52%
14,CC(=O)c1ccc(CNC(=O)c2cc(C#N)cn2C)nc1C,-4.66%
15,OCC1(O)CCCN(Cc2nnc(-c3ccccc3)o2)CC1 (configuration not stated),-7.78%
16,Cc1cccc2c1nc(COCC(=O)O)n2-c1cnc(N)cn1,-4.53%
17,C1=C(c2c[nH]c3ncccc23)CCN(Cc2nnc(C3CC3)o2)C1,12.3%
18,Cc1cccc2nc(-c3nc4c([nH]3)CCCNC4=O)cn12,16%
19,O=S(=O)(Nc1ccc(N2CCOCC2)cn1)c1cccc(F)c1,-3.99%
